Source: patent US20260262643A1, “HERBICIDAL BENZOXAZINES” (FMC CORPORATION, priority 2022, published 2026)
Where two headings read alike, the source gives them in different places.

Experiments:
[1] = test system: pigweed, palmer; assay: Test A preemergence; assay type: in vivo, Amaranthus palmeri; conditions: Amaranthus palmeri, pre-emergence, 240 h, read-out: Plant response rating, Pigweed, Palmer; for pest or weed control at 125 g/ha: 125 g ai/ha; for pest or weed control at 500 g/ha: 500 g ai/ha
Outline: (§1)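 Weeds and crops in loam–sand blend were sprayed preemergence onto soil or postemergence at 2–10 cm (one- to two-leaf stage). Test chemicals were in a non-phytotoxic solvent with surfactant. After 10 days in the greenhouse, injury was rated visually against untreated controls on a 0 (no effect) to 100 (complete control) scale.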

[2] = test system: ragweed; assay: Test A postemergence; assay type: in vivo, Ambrosia artemisiifolia; conditions: Ambrosia artemisiifolia, post-emergence, 240 h, postemergence, 10 days, 0 to 100 scale (0 no effect, 100 complete control); for pest or weed control at 125 g/ha: 125 g ai/ha, read-out: Ragweed plant response rating; for pest or weed control at 500 g/ha: 500 g ai/ha, visual injury, read-out: Plant response rating, Ragweed
Outline: as §1

[3] = test system: ragweed; assay: Test A preemergence; assay type: in vivo, Ambrosia artemisiifolia; conditions: Ambrosia artemisiifolia, pre-emergence, 240 h, read-out: Plant response rating, Ragweed; for pest or weed control at 125 g/ha: 125 g ai/ha; for pest or weed control at 500 g/ha: 500 g ai/ha
Outline: as §1

[4] = test system: corn; assay: Test A preemergence; assay type: in vivo, Zea mays; conditions: Zea mays, pre-emergence, 240 h; for Corn plant response rating (crop injury, 0 = no effect, 100 = complete kill) at 125 g/ha: 125 g ai/ha; for Corn plant response rating (crop injury, 0 = no effect, 100 = complete kill) at 500 g/ha: 500 g ai/ha
Outline: as §1

[5] = test system: foxtail, giant; assay: Test A postemergence; assay type: in vivo, Setaria faberi; conditions: Setaria faberi, post-emergence, 240 h, postemergence, 10 days, 0 to 100 scale (0 no effect, 100 complete control); for pest or weed control at 125 g/ha: 125 g ai/ha, read-out: Foxtail, Giant plant response rating; for pest or weed control at 500 g/ha: 500 g ai/ha, visual injury, read-out: Plant response rating, Foxtail, Giant
Outline: as §1

[6] = test system: soybean; assay: Test A postemergence; assay type: in vivo, Glycine max; conditions: Glycine max, post-emergence, 240 h, postemergence, 10 days, 0 to 100 scale (0 no effect, 100 complete control); for plant injury at 125 g/ha: 125 g ai/ha, read-out: Soybean plant response rating; for plant injury at 500 g/ha: 500 g ai/ha, visual injury, read-out: Plant response rating, Soybean
Outline: as §1

[7] = test system: pigweed, palmer; assay: Test A postemergence; assay type: in vivo, Amaranthus palmeri; conditions: Amaranthus palmeri, post-emergence, 240 h, postemergence, 10 days, 0 to 100 scale (0 no effect, 100 complete control); for pest or weed control at 125 g/ha: 125 g ai/ha, read-out: Pigweed, Palmer plant response rating; for pest or weed control at 500 g/ha: 500 g ai/ha, visual injury, read-out: Plant response rating, Pigweed, Palmer
Outline: as §1

[8] = test system: barnyardgrass; assay: Test B flooded paddy test; assay type: in vivo, Echinochloa crus-galli; conditions: Echinochloa crus-galli, 312 h, 250 g ai/ha, Flood, 13 days, 0 to 100 scale (0 no effect, 100 complete control); read-out: Plant response rating, Barnyardgrass
Outline: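 Application into standing water (3 cm above soil) at the two-leaf stage; flood depth held constant. Evaluation: day 13, visual comparison with controls, 0 = no injury, 100 = complete control.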

[9] = test system: kochia; assay: Test A postemergence; assay type: in vivo, Bassia scoparia; conditions: Bassia scoparia, post-emergence, 240 h, postemergence, 10 days, 0 to 100 scale (0 no effect, 100 complete control); for pest or weed control at 125 g/ha: 125 g ai/ha, read-out: Kochia plant response rating; for pest or weed control at 500 g/ha: 500 g ai/ha, visual injury, read-out: Plant response rating, Kochia
Outline: as §1

[10] = test system: wheat; assay: Test A preemergence; assay type: in vivo, Triticum aestivum; conditions: Triticum aestivum, pre-emergence, 240 h, read-out: Plant response rating, Wheat; for plant injury at 125 g/ha: 125 g ai/ha; for plant injury at 500 g/ha: 500 g ai/ha
Outline: as §1

[11] = test system: horseweed; assay: Test A postemergence; assay type: in vivo, Erigeron canadensis; conditions: Erigeron canadensis, post-emergence, 240 h, postemergence, 10 days, 0 to 100 scale (0 no effect, 100 complete control); for pest or weed control at 125 g/ha: 125 g ai/ha, read-out: Horseweed plant response rating; for pest or weed control at 500 g/ha: 500 g ai/ha, visual injury, read-out: Plant response rating, Horseweed
Outline: as §1

[12] = test system: corn; assay: Test A postemergence; assay type: in vivo, Zea mays; conditions: Zea mays, post-emergence, 240 h, postemergence, 10 days, 0 to 100 scale (0 no effect, 100 complete control); for plant injury at 125 g/ha: 125 g ai/ha, read-out: Corn plant response rating; for Corn plant response rating (crop injury, 0 = no effect, 100 = complete kill) at 500 g/ha: 500 g ai/ha, visual injury
Outline: as §1

[13] = test system: foxtail, giant; assay: Test A preemergence; assay type: in vivo, Setaria faberi; conditions: Setaria faberi, pre-emergence, 240 h, read-out: Plant response rating, Foxtail, Giant; for pest or weed control at 125 g/ha: 125 g ai/ha; for pest or weed control at 500 g/ha: 500 g ai/ha
Outline: as §1

[14] = test system: ryegrass, Italian; assay: Test A preemergence; assay type: in vivo, Lolium multiflorum; conditions: Lolium multiflorum, pre-emergence, 240 h, read-out: Plant response rating, Ryegrass, Italian; for pest or weed control at 125 g/ha: 125 g ai/ha; for pest or weed control at 500 g/ha: 500 g ai/ha
Outline: as §1

[15] = visual injury after 10 days, 0 to 100 scale, 0 is no effect, 100 is complete control
[16] = 0 to 100 scale (0 no effect, 100 complete control), 10 days

| Structure (SMILES) | pest or weed control at 125 g/ha [1, 15] [%] | pest or weed control at 125 g/ha [2] [%] | pest or weed control at 500 g/ha [2] [%] | pest or weed control at 125 g/ha [3, 15] [%] | Corn plant response rating (crop injury, 0 = no effect, 100 = complete kill) at 125 g/ha [4, 15] [%] | pest or weed control at 125 g/ha [5] [%] | pest or weed control at 500 g/ha [5] [%] | plant injury at 125 g/ha [6] [%] | plant injury at 500 g/ha [6] [%] | pest or weed control at 125 g/ha [7] [%] | pest or weed control at 500 g/ha [7] [%] | pest or weed control at 250 g/ha [8] [%] | pest or weed control at 125 g/ha [9] [%] | pest or weed control at 500 g/ha [9] [%] | plant injury at 125 g/ha [10, 15] [%] | pest or weed control at 125 g/ha [11] [%] | pest or weed control at 500 g/ha [11] [%] | plant injury at 125 g/ha [12] [%] | Corn plant response rating (crop injury, 0 = no effect, 100 = complete kill) at 500 g/ha [12] [%] | pest or weed control at 125 g/ha [13, 15] [%] | also measured |
| --- | --- | --- | --- | --- | --- | --- | --- | --- | --- | --- | --- | --- | --- | --- | --- | --- | --- | --- | --- | --- | --- |
| Cc1cccc2c1O[C@@H](C)CN2C(=O)c1cccc(-n2cnn(C)c2=O)c1 [Compound 117, 4-[3-[[(2S)-2,3-Dihydro-2,8-dimethyl-4H-1,4-benzoxazin-4-yl]carbonyl]phenyl]-2,4-dihydro-2-methyl-3H-1,2,4-triazol-3-one] | 20 | 0 | 0 | 0 | 0 | 20 | 70 | 60 | 100 | 10 | 30 | 0 | 30 | 70 | 0 | 0 | 10 | 0 | 50 | 60 | pest or weed control at 500 g/ha [1, 15]: 80%; pest or weed control at 500 g/ha [3, 15]: 40%; Corn plant response rating (crop injury, 0 = no effect, 100 = complete kill) at 500 g/ha [4, 15]: 10%; plant injury at 500 g/ha [10, 15]: 20%; pest or weed control at 500 g/ha [13, 15]: 90%; pest or weed control at 125 g/ha [14, 15]: 40%; pest or weed control at 500 g/ha [14, 15]: 100% |
| CCc1ncn(-c2ccc(OC)c(C(=O)N3C[C@H](C)Oc4c(Cl)cccc43)c2)n1 [Compound 88, [(2S)-8-Chloro-2,3-dihydro-2-methyl-4H-1,4-benzoxazin-4-yl][5-(3-ethyl-1H-1,2,4-triazol-1-yl)-2-methoxyphenyl]methanone] | 100 | 70 | 100 | 60 | 40 | 90 | 90 | 100 | 100 | 90 | 90 | 45 | 90 | 100 | 20 | 40 | 90 | 90 | 90 | 100 | pest or weed control at 500 g/ha [1, 16]: 100%; pest or weed control at 500 g/ha [3, 16]: 100%; Corn plant response rating (crop injury, 0 = no effect, 100 = complete kill) at 500 g/ha [4, 16]: 40%; plant injury at 500 g/ha [10, 16]: 40%; pest or weed control at 500 g/ha [13, 16]: 100%; pest or weed control at 125 g/ha [14, 15]: 100%; pest or weed control at 500 g/ha [14, 16]: 100% |
| CCc1ccc(-n2cnc(C(C)C)n2)cc1C(=O)N1C[C@H](C)Oc2c(Cl)cccc21 [Compound 94, [(2S)-8-Chloro-2,3-dihydro-2-methyl-4H-1,4-benzoxazin-4-yl][2-ethyl-5-[3-(1-methylethyl)-1H-1,2,4-triazol-1-yl]phenyl]methanone] | 100 | 50 | 50 | 0 | 60 | 90 | 90 | 100 | 100 | 90 | 90 | 30 | 100 | 100 | 50 | 0 | 50 | 80 | 90 | 100 | pest or weed control at 500 g/ha [1, 16]: 100%; pest or weed control at 500 g/ha [3, 16]: 0%; Corn plant response rating (crop injury, 0 = no effect, 100 = complete kill) at 500 g/ha [4, 16]: 90%; plant injury at 500 g/ha [10, 16]: 90%; pest or weed control at 500 g/ha [13, 16]: 100%; pest or weed control at 125 g/ha [14, 15]: 90%; pest or weed control at 500 g/ha [14, 16]: 100% |
